From patent publication US8080547B2, “Triazolopyridine carboxamide derivatives and triazolopyrimidine carboxamide derivatives, preparation thereof and therapeutic use thereof” (Sanofi-Aventis, priority 2007, dated 2011)

Key:
[1] = target: T1, MGL (monoacyl glycerol lipase) enzyme (Mus musculus, UniProt O35678); assay: radioenzymatic assay of [3H] 2-OG hydrolysis by MGL; format: biochemical; details: mouse brain homogenate; 20 min preincubation; 50 μM 2-OG; read-out: IC50 (concentration inhibiting 50% of the control enzyme activity of MGL)
T1 construct: the source of MGL enzyme is a mouse brain homogenate from which the cerebellum and the medulla oblongata have been removed; from tissue; host or cells: mouse brain homogenate (cerebellum and medulla oblongata removed)
T1 sequence (O35678 1-303): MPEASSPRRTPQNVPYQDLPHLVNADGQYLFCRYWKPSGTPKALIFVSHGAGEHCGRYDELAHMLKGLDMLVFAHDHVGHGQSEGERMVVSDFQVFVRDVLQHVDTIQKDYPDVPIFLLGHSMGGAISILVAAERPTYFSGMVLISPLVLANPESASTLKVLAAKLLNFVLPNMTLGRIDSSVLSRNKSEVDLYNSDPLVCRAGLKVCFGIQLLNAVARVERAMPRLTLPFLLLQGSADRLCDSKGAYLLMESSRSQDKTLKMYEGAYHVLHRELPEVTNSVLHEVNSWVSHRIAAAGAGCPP
Experimental: Tests comprised measuring the activity, in vitro, of the compounds of the invention on the MGL enzyme.
The inhibitory activity was measured in a radioenzymatic assay based on measuring the product of hydrolysis of 2-oleoyl glycerol ([^3H] 2-OG) by MGL. The products of hydrolysis of [^3H] 2-OG, labeled on the glycerol, are oleic acid and [^3H]glycerol, and the source of MGL enzyme is a mouse brain homogenate from which the cerebellum and the medulla oblongata have been removed. The mouse brains are removed, and stored at −80° C. until they are used or homogenized immediately for twice 5 seconds using a Precellys apparatus at 5000 rpm (Bertin) in a 10 mM Tris-HCl, 150 mM NaCl, 1 mM EDTA buffer (pH 8) at 4° C. The concentration of the homogenates is then adjusted to 7.5 μg/μl.
(§1) The dilution series of the compounds is prepared from stock solutions at 20 mM in 100% DMSO. […]
Assaying of the MGL activity is carried out in a 96-well microplate in a final reaction volume of 100 μl. […] After stirring for 10 minutes, the microplate is centrifuged for 15 minutes at 4000 g and a 30 μl aliquot of the aqueous phase containing the [^3H]glycerol produced is removed and then counted for 5 minutes by liquid scintillation (Wallac 1450 Microbeta). […]

[2] = target: T2, FAAH (Fatty Acid Amide Hydrolase) enzyme (Mus musculus, UniProt O08914); assay: radioenzymatic assay of [3H]anandamide hydrolysis by FAAH; format: biochemical; details: mouse brain homogenate; 20 min preincubation; 10 μM anandamide; read-out: IC50 (concentration which inhibits 50% of the control enzyme activity of FAAH)
T2 construct: the source of FAAH enzyme is a mouse brain homogenate from which the cerebellum and the medulla oblongata have been removed; from tissue; host or cells: mouse brain homogenate (cerebellum and medulla oblongata removed)
T2 sequence (O08914 1-579): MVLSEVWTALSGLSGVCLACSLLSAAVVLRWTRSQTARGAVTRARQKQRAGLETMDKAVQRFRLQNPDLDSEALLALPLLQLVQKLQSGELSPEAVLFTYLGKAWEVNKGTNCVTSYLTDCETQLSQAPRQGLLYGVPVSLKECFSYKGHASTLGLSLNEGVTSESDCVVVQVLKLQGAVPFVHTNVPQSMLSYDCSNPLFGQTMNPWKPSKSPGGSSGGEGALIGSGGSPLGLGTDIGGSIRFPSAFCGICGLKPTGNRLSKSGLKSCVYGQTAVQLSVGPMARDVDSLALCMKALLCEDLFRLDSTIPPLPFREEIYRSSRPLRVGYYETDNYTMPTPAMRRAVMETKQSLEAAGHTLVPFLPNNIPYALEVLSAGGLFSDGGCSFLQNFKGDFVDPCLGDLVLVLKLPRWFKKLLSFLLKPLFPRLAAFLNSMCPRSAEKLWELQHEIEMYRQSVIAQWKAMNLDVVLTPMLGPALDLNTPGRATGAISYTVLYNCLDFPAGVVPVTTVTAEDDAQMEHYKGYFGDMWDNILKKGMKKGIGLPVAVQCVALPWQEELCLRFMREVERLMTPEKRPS
Experimental: Tests comprised measuring the activity, in vitro, of the compounds of the invention on the FAAH enzyme.
The inhibitory activity was measured in a radioenzymatic assay based on measuring the product of hydrolysis (ethanolamine [1-3H]) of anandamide by FAAH (Life Science (1995), 56, 1999-2005 and Journal of Pharmacology and Experimented Therapeutics (1997), 283, 729-734). The products of hydrolysis of [^3H]anandamide, labeled on ethanolamine, are arachidonic acid and [^3H]ethanolamine and the source of FAAH enzyme is a mouse brain homogenate from which the cerebellum and the medulla oblongata have been removed. The mouse brains are removed, and stored at −80° C. until they are used or homogenized immediately for twice 5 seconds using a Precellys apparatus at 5000 rpm (Bertin) in a 10 mM Tris-HCl, 150 mM NaCl, 1 mM EDTA buffer (pH 8) at 4° C. The concentration of the homogenates is then adjusted to 20 μg/μl.
as §1
Assaying of the FAAH activity is carried out in a 96-well microplate in a final reaction volume of 70 μl. […] After stirring for 10 minutes, the microplate is centrifuged for 15 minutes at 4000 g and a 30 μl aliquot of the aqueous phase containing the [^3H]ethanolamine produced is removed and then counted for 5 minutes by liquid scintillation (Wallac 1450 Microbeta).

melting point [°C] | IC50 [1] [nM] | IC50 [2] [nM] | Structure (SMILES)
158 to 160 | – | – | O=C(N1CCN(c2cccc(C(F)(F)F)c2)CC1)n1nnc2ccc(N3CCCC3)nc21 [compound 3, (5-pyrrolidin-1-yl[1,2,3]triazolo[4,5-b]pyridin-3-yl)[4-(3-trifluoromethylphenyl)piperazin-1-yl]methanone]
138 to 140 | – | – | COc1ccc(N2CCN(C(=O)n3nnc4ccc(N5CCCC5)nc43)CC2)cc1 [Compound No. 2, [4-(4-Methoxyphenyl)piperazin-1-yl](5-pyrrolidin-1-yl[1,2,3]triazolo[4,5-b]-pyridin-3-yl)methanone]
141 to 143 | – | – | O=C(N1CCN(c2ccc(C(F)(F)F)cc2)CC1)n1nnc2ccc(N3CCC(F)(F)C3)nc21 [compound 4, [5-(3,3-difluoropyrrolidin-1-yl)[1,2,3]triazolo[4,5-b]pyridin-3-yl)[4-(4-trifluoromethylphenyl)piperazin-1-yl]methanone]
172 to 174 | 4 | 10 | O=C(N1CCN(c2cccc(C(F)(F)F)c2)CC1)n1nnc2ccc(N3CCOCC3)nc21 [compound 1, (5-morpholin-4-yl[1,2,3]triazolo[4,5-b]pyridin-3-yl)[4-(3-trifluoromethylphenyl)piperazin-1-yl]methanone]
